Measurements: publication PMC3819915, “Stable Suppression of Lactate Dehydrogenase Activity during Anoxia in the Foot Muscle of Littorina littorea and the Potential Role of Acetylation as a Novel Posttranslational Regulatory Mechanism” (Enzyme Research, 2013)

What was measured:
[1] = tested on: T1, LDH (D-lactate specific LDH, D-LDH) from foot muscle, aerobic control; test: NADH absorbance at […] nm, microplate; format: biochemical, Littorina littorea; details: 25°C, control enzyme
T1 construct: native enzyme from foot muscle of aerobic control snails, partially purified on blue agarose; more acetylated than the 24 h anoxic form

[2] = tested on: T1, LDH (D-lactate specific LDH, D-LDH) from foot muscle, aerobic control; test: NADH absorbance at […] nm, microplate; format: biochemical, Littorina littorea; details: assay direction not stated for this effector, presumably pyruvate-reducing (pH 6.5, 2.5 mM pyruvate, 0.25 mM NADH); 25°C; control enzyme

| IC50 [2] | Structure (SMILES) | other results |
| --- | --- | --- |
|  | CC(=O)C(=O)O [pyruvate] | Km ([1]; 25 mM KH2PO4 pH 6.5, 0.25 mM NADH): 0.29 ± 0.01 mM |
| 13 ± 1 mM | Nc1ncnc2c1ncn2[C@@H]1O[C@H](COP(=O)(O)OP(=O)(O)OP(=O)(O)O)[C@@H](O)[C@H]1O [ATP] |  |
|  | C[C@@H](O)C(=O)O [D-lactate] | Km ([1]; D-lactate-oxidizing direction, 25 mM KH2PO4 pH 9.5, 3 mM NAD+): 25 ± 2 mM |
| 23 ± 2 mM | Nc1ncnc2c1ncn2[C@@H]1O[C@H](COP(=O)(O)OP(=O)(O)O)[C@@H](O)[C@H]1O [ADP] |  |
